# According to ChEMBL document CHEMBL2396618, “Macrocyclic inhibitors of 3C and 3C-like proteases of picornavirus, norovirus, and coronavirus” (Bioorg Med Chem Lett, 2013):
# How the values were obtained:
# [1] = target: Genome polyprotein (Coxsackievirus B3 (strain Nancy), UniProt P03313); assay: Inhibition of Coxsackievirus B3 Nancy 3Cpro
# [2] = target: Replicase polyprotein 1a (Severe acute respiratory syndrome-related coronavirus, UniProt P0C6U8); assay: Inhibition of SARS coronavirus 3CLpro using Dabcyl-KTSAVLQ/SGFRKME-Edans as substrate preincubated for 30 mins followed by substrate addition by FRET assay
# [3] = Inhibition of norovirus 3CLpro using Edans-DFHLQ/GP-Dabcyl as substrate preincubated for 30 mins followed by substrate addition by FRET assay
# Chain of Genome polyprotein (P03313 1541-1723 limits assumed): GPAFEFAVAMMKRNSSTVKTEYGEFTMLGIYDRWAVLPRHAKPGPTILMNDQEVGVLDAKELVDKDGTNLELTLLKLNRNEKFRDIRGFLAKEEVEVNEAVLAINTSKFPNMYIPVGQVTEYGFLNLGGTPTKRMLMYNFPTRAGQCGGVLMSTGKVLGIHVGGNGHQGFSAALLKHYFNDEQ
smiles,measurement,setting,value
CC(C)C[C@@H]1NC(=O)[C@@H](NC(=O)OCc2ccccc2)Cc2cn(nn2)CCCNC(=O)CC[C@@H](C=O)NC1=O,IC50,[1],1.8 µM
same,IC50,[2],15.5 µM
same,IC50,[3],5.1 µM
